Several values for one entry are separate records, joined by “and”; a condition that tells them apart may be missing. Equal values may be shown once. Toxic doses and inconclusive results are not listed. Rule for the calls: active = survival T/C of 150% or more; inactive = T/C below 125% in these data.
Test system: P388 leukemia ip, CD2F1 mice, survival T/C
Assay: NCI In Vivo Anticancer Drug Screen. Data for tumor model P388 Leukemia (intraperitoneal) in CD2F1 (CDF1) mice
Conditions: endpoint: median survival time, higher = longer survival
Method in brief: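 Mice carrying the transplanted tumor received test compound or vehicle. Survival was recorded in each group, and the value is the treated-group measurement divided by that of the vehicle-treated control group.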

[1] = dose: 60.0 mg/kg/injection, schedule: Q01DX005 (ip), vehicle: saline with Tween-80
[2] = dose: 120.0 mg/kg/injection, schedule: Q01DX005 (ip), vehicle: saline with Tween-80
[3] = dose: 50.0 mg/kg/injection, schedule: Q01DX009 (ip), vehicle: saline
[4] = dose: 100.0 mg/kg/injection, schedule: Q01DX009 (ip), vehicle: saline
[5] = dose: 25.0 mg/kg/injection, schedule: Q01DX009 (ip), vehicle: saline with Tween-80
[6] = dose: 50.0 mg/kg/injection, schedule: Q01DX009 (ip), vehicle: saline with Tween-80
[7] = dose: 200.0 mg/kg/injection, schedule: Q01DX009 (ip), vehicle: saline
[8] = dose: 6.25 mg/kg/injection, schedule: Q04DX003 (ip), vehicle: Klucel (hydroxypropylcellulose) (HPC)
[9] = dose: 12.5 mg/kg/injection, schedule: Q04DX003 (ip), vehicle: Klucel (hydroxypropylcellulose) (HPC)
[10] = dose: 25.0 mg/kg/injection, schedule: Q04DX003 (ip), vehicle: Klucel (hydroxypropylcellulose) (HPC)
[11] = dose: 50.0 mg/kg/injection, schedule: Q04DX003 (ip), vehicle: Klucel (hydroxypropylcellulose) (HPC)
[12] = dose: 6.25 mg/kg/injection, schedule: Q01DX005 (ip), vehicle: saline
[13] = dose: 12.5 mg/kg/injection, schedule: Q01DX005 (ip), vehicle: saline with Tween-80
[14] = dose: 25.0 mg/kg/injection, schedule: Q01DX005 (ip), vehicle: saline with Tween-80
[15] = dose: 50.0 mg/kg/injection, schedule: Q01DX005 (ip), vehicle: saline with Tween-80
[16] = dose: 100.0 mg/kg/injection, schedule: Q01DX005 (ip), vehicle: saline with Tween-80
[17] = dose: 200.0 mg/kg/injection, schedule: Q01DX005 (ip), vehicle: saline with Tween-80

Measured: T/C

CCN1C(=O)C(C)C(=O)N(C)C1=O (stereo not given)
inactive: dose: 60.0 mg/kg/injection, schedule: Q01DX005 (ip), vehicle: saline 110 % of control | dose: 120.0 mg/kg/injection, schedule: Q01DX005 (ip), vehicle: saline 100 % of control | dose: 240.0 mg/kg/injection, schedule: Q01DX005 (ip), vehicle: saline 100 % of control

S=P1(CNc2ccccc2)CN(c2ccccc2)CN(c2ccccc2)C1
inactive: dose: 50.0 mg/kg/injection, schedule: Q01DX001 (ip), vehicle: saline with Tween-80 100 % of control | dose: 100.0 mg/kg/injection, schedule: Q01DX001 (ip), vehicle: saline with Tween-80 95 % of control | dose: 200.0 mg/kg/injection, schedule: Q01DX001 (ip), vehicle: saline with Tween-80 100 % of control

COC(=O)c1nc2c(c(=O)n(C)c(=O)n2C)n1C
inactive: [1] 94 % of control | [2] 96 % of control | dose: 240.0 mg/kg/injection, schedule: Q01DX005 (ip), vehicle: saline with Tween-80 89 % of control

CC(C)(C)NC(=O)NS(=O)(=O)c1cccnc1Sc1ccccc1Cl
inactive: dose: 60.0 mg/kg/injection, schedule: Q01DX005 (ip), vehicle: Klucel (hydroxypropylcellulose) (HPC) 107 % of control | dose: 120.0 mg/kg/injection, schedule: Q01DX005 (ip), vehicle: Klucel (hydroxypropylcellulose) (HPC) 105 % of control | dose: 240.0 mg/kg/injection, schedule: Q01DX005 (ip), vehicle: Klucel (hydroxypropylcellulose) (HPC) 99 % of control

C1=C(c2ccccc2)SC(N2CCCCC2)S1 (stereo not given)
inactive: dose: 12.5 mg/kg/injection, schedule: Q01DX009 (ip), vehicle: distilled water + Tween-80 99 % of control | dose: 25.0 mg/kg/injection, schedule: Q01DX009 (ip), vehicle: distilled water + Tween-80 99 % of control | dose: 50.0 mg/kg/injection, schedule: Q01DX009 (ip), vehicle: distilled water + Tween-80 96 % of control | dose: 100.0 mg/kg/injection, schedule: Q01DX009 (ip), vehicle: distilled water + Tween-80 104 % of control | dose: 200.0 mg/kg/injection, schedule: Q01DX009 (ip), vehicle: distilled water + Tween-80 112 % of control

CC1CC(C)NC(C)C1 (stereo not given)
inactive: dose: 12.5 mg/kg/injection, schedule: Q01DX009 (ip), vehicle: saline 86 % of control | dose: 25.0 mg/kg/injection, schedule: Q01DX009 (ip), vehicle: saline 103 % of control | [3] 97 % of control | [4] 93 % of control

CC(NC(=O)CCl)C(=O)O (stereo not given)
inactive: [5] 105 % of control and 109 % of control | [6] 101 % of control and 103 % of control | [3] 101 % of control | dose: 100.0 mg/kg/injection, schedule: Q01DX009 (ip), vehicle: saline with Tween-80 105 % of control and 95 % of control | [4] 105 % of control | dose: 200.0 mg/kg/injection, schedule: Q01DX009 (ip), vehicle: saline with Tween-80 103 % of control | [7] 101 % of control

CCOC(=O)c1coc(N)n1
inactive: dose: 12.5 mg/kg/injection, schedule: Q01DX009 (ip), vehicle: other 98 % of control | dose: 25.0 mg/kg/injection, schedule: Q01DX009 (ip), vehicle: other 100 % of control | dose: 50.0 mg/kg/injection, schedule: Q01DX009 (ip), vehicle: other 106 % of control | dose: 100.0 mg/kg/injection, schedule: Q01DX009 (ip), vehicle: other 107 % of control | dose: 200.0 mg/kg/injection, schedule: Q01DX009 (ip), vehicle: other 103 % of control

C1CCC(C2CCCC[N-]2)[N-]C1.O.O.[Pd+2] (stereo not given)
inactive: [8] 102 % of control | dose: 6.25 mg/kg/injection, schedule: Q04DX003 (ip), vehicle: saline with Tween-80 96 % of control | [9] 102 % of control | dose: 12.5 mg/kg/injection, schedule: Q04DX003 (ip), vehicle: saline with Tween-80 104 % of control | [10] 102 % of control | dose: 25.0 mg/kg/injection, schedule: Q04DX003 (ip), vehicle: saline with Tween-80 98 % of control and 105 % of control | [11] 101 % of control | dose: 50.0 mg/kg/injection, schedule: Q04DX003 (ip), vehicle: saline with Tween-80 96 % of control | dose: 100.0 mg/kg/injection, schedule: Q04DX003 (ip), vehicle: saline with Tween-80 97 % of control

Cc1cn(Cc2ccc(Cl)cc2Cl)c(C)n1
inactive: dose: 15.0 mg/kg/injection, schedule: Q01DX005 (ip), vehicle: saline with Tween-80 100 % of control | dose: 30.0 mg/kg/injection, schedule: Q01DX005 (ip), vehicle: saline with Tween-80 107 % of control | [1] 100 % of control and 108 % of control

FC(F)(F)C(F)(F)C(F)(F)C(F)(F)C(F)(F)C(F)(F)C[CH2][Sn]([Cl])([Cl])[CH2]CC(F)(F)C(F)(F)C(F)(F)C(F)(F)C(F)(F)C(F)(F)F
inactive: [1] 118 % of control | [2] 119 % of control

CC(=O)NC1=C(O)C2C(c3ccccc3)C(C#N)C(=O)N2C1=O (stereo not given)
inactive: dose: 100.0 mg/kg/injection, schedule: Q04DX002 (ip), vehicle: saline with Tween-80 100 % of control | dose: 200.0 mg/kg/injection, schedule: Q04DX002 (ip), vehicle: saline with Tween-80 100 % of control | dose: 400.0 mg/kg/injection, schedule: Q04DX002 (ip), vehicle: saline with Tween-80 95 % of control

NC(=O)CCC(N)C(=O)O (stereo not given)
inactive: dose: 12.5 mg/kg/injection, schedule: Q01DX009 (ip), vehicle: saline with Tween-80 105 % of control | [5] 119 % of control | [6] 112 % of control | [3] 113 % of control | [4] 101 % of control and 116 % of control | [7] 90 % of control and 109 % of control | dose: 400.0 mg/kg/injection, schedule: Q01DX009 (ip), vehicle: saline 109 % of control

O=C1OI(Cl)c2ccccc21
inactive: [1] 104 % of control | [2] 104 % of control

CN=C(NC)c1ccc(NC(=O)Nc2ccc(C)c(NC(=O)Nc3ccc(C(=NC)NC)cc3)c2)cc1
inactive: dose: 1.56 mg/kg/injection, schedule: Q01DX005 (ip), vehicle: saline 96 % of control | dose: 3.12 mg/kg/injection, schedule: Q01DX005 (ip), vehicle: saline 99 % of control | [12] 96 % of control | dose: 6.25 mg/kg/injection, schedule: Q01DX005 (ip), vehicle: suspension in saline 103 % of control

OC1OCC(Cc2ccc3c(c2)OCO3)C1Cc1ccc2c(c1)OCO2 (stereo not given)
inactive: dose: 100.0 mg/kg/injection, schedule: Q04DX003 (ip), vehicle: other 95 % of control | dose: 200.0 mg/kg/injection, schedule: Q04DX003 (ip), vehicle: other 90 % of control | dose: 400.0 mg/kg/injection, schedule: Q04DX003 (ip), vehicle: other 90 % of control

COC(=O)c1ccc(O)cc1
inactive: [13] 98 % of control | [14] 99 % of control | [15] 100 % of control | [16] 100 % of control | [17] 105 % of control | dose: 400.0 mg/kg/injection, schedule: Q01DX005 (ip), vehicle: saline with Tween-80 100 % of control

CN1CC=C(c2ccccc2)CC1
inactive: [12] 97 % of control | dose: 12.5 mg/kg/injection, schedule: Q01DX005 (ip), vehicle: saline 99 % of control | dose: 25.0 mg/kg/injection, schedule: Q01DX005 (ip), vehicle: saline 101 % of control and 98 % of control

CC(NNC(=S)N1CCC(c2ccccc2)CC1)c1cc2ccccc2cn1 (stereo not given)
inactive: dose: 6.25 mg/kg/injection, schedule: Q01DX005 (ip), vehicle: saline with Tween-80 97 % of control | [13] 103 % of control | [14] 111 % of control

CS/C(=C1/C(=O)N(c2ccccc2)N=C1C)N1CC1
inactive: [8] 99 % of control | [9] 100 % of control | [10] 102 % of control and 109 % of control | [11] 90 % of control

O=C1c2ccccc2C(=O)C1C(=Nc1ccccc1Br)c1ccccc1
inactive: [15] 99 % of control | [16] 103 % of control | [17] 103 % of control

c1ccc(C2(c3ccc(C4(c5ccccc5)Oc5ccccc5S4)[nH]3)Oc3ccccc3S2)cc1 (stereo not given)
inactive: [1] 96 % of control | [2] 107 % of control

CC(C)C(=O)NCCCCCN1CCCCC1
inactive: dose: 50.0 mg/kg/injection, schedule: Q01DX005 (ip), vehicle: saline 106 % of control | dose: 100.0 mg/kg/injection, schedule: Q01DX005 (ip), vehicle: saline 99 % of control | dose: 200.0 mg/kg/injection, schedule: Q01DX005 (ip), vehicle: saline 99 % of control

From PubChem BioAssay AID330 (DTP/NCI, 2004)
